Reference: the CheMixHub viscosity set

Assay: xn = mol fraction of the nth substance listed

CCCOCCO + CN(C)C=O
298.15 K, 101 kPa
Settings	viscosity [mPa·s]
x1 = 0.0076	0.821
x1 = 0.0172	0.834
x1 = 0.029	0.846
x1 = 0.0502	0.874
x1 = 0.1029	0.948
x1 = 0.1416	0.998
x1 = 0.1927	1.07
x1 = 0.264	1.18
x1 = 0.2944	1.223
x1 = 0.3428	1.289
x1 = 0.3521	1.305
x1 = 0.4414	1.458
x1 = 0.5181	1.582
x1 = 0.5987	1.726
x1 = 0.6457	1.809
x1 = 0.6982	1.895
x1 = 0.7555	1.989
x1 = 0.8533	2.164
x1 = 0.9398	2.308
x1 = 0.9729	2.345

CC(C)C(C)C + CCCCCCCCCCCC
298 K, 101.33 kPa
Settings	viscosity [mPa·s]
x1 = 0.101	1.237
x1 = 0.2039	1.127
x1 = 0.297	1.018
x1 = 0.4013	0.898
x1 = 0.4985	0.7936
x1 = 0.6035	0.6871
x1 = 0.7426	0.5433
x1 = 0.8116	0.4795
x1 = 0.9014	0.4023

C=CCNCC=C.CC(=O)O + O
101 kPa, x2 = 0.284
Settings	viscosity [mPa·s]
298.15 K	80
308.15 K	45.7
318.15 K	27.6

CCCCOCCCOCCCO + CCO
viscosity [mPa·s], 101.33 kPa
Settings	298.15 K	308.15 K	318.15 K
x1 = 0.05	1.3	1.074	0.896
x1 = 0.1	1.505	1.227	1.015
x1 = 0.15	1.717	1.386	1.137
x1 = 0.2	1.927	1.541	1.256
x1 = 0.25	2.135	1.696	1.369
x1 = 0.3	2.362	1.858	1.497
x1 = 0.35	2.562	2.003	1.597
x1 = 0.4001	2.755	2.14	1.696
x1 = 0.4499	2.94	2.265	1.79
x1 = 0.4999	3.121	2.39	1.879
x1 = 0.5499	3.292	2.51	1.956
x1 = 0.5997	3.453	2.622	2.039
x1 = 0.6501	3.608	2.724	2.114
x1 = 0.6998	3.756	2.821	2.182
x1 = 0.7499	3.899	2.91	2.24
x1 = 0.7999	4.018	2.998	2.306
x1 = 0.8499	4.147	3.088	2.363
x1 = 0.8997	4.271	3.158	2.423
x1 = 0.9498	4.386	3.233	2.466

NNc1ccccc1 + COc1ccccc1O
303.15 K, 101 kPa
Settings	viscosity [mPa·s]
x1 = 0.1	5.95
x1 = 0.2	8.21
x1 = 0.3	10.92
x1 = 0.4	13.15
x1 = 0.45	14.65
x1 = 0.5	15.26
x1 = 0.6	15.77
x1 = 0.667	16.06
x1 = 0.7	15.54
x1 = 0.8	14.08
x1 = 0.9	12.33

Nc1cccc2ccccc12 + CCCCO
viscosity [mPa·s], 101 kPa
Settings	x1 = 0.03572	x1 = 0.06889	x1 = 0.1289	x1 = 0.1817	x1 = 0.2285	x1 = 0.2702	x1 = 0.3076
293.15 K	3.082	3.202	3.539	3.906	4.311	4.724	5.193
303.15 K	2.355	2.427	2.641	2.879	3.134	3.39	3.681
313.15 K	1.828	1.878	2.019	2.186	2.355	2.532	2.719
323.15 K	1.456	1.494	1.596	1.718	1.839	1.965	2.097

O=S(=O)(O)CCN1CCOCC1 + O
viscosity [mPa·s], 101.3 kPa
Settings	x1 = 0.003662	x1 = 0.0073	x1 = 0.00959	x1 = 0.01075	x1 = 0.01417	x1 = 0.01767
298.15 K	0.918	0.98	1.006	1.035	1.101	1.153
308.15 K	0.743	0.792	0.814	0.836	0.893	0.932
318.15 K	0.616	0.657	0.676	0.693	0.737	0.772

Nc1cccc2ccccc12 + CCCO
viscosity [mPa·s], 101 kPa
Settings	x1 = 0.02914	x1 = 0.0566	x1 = 0.1072	x1 = 0.1525	x1 = 0.1936	x1 = 0.2308	x1 = 0.2648
293.15 K	2.371	2.516	2.846	3.22	3.628	4.054	4.498
303.15 K	1.836	1.937	2.154	2.392	2.662	2.931	3.222
313.15 K	1.445	1.518	1.674	1.839	2.02	2.211	2.403
323.15 K	1.153	1.21	1.324	1.443	1.57	1.7	1.838

CCCCn1cc[n+](C)c1.[Cl-] + CC#N
Settings	viscosity [mPa·s]
308.15 K, 101 kPa, x2 = 0.7003	8.47

CCCOCCO + CCCO
298.15 K, 101.33 kPa
Settings	viscosity [mPa·s]
x1 = 0.0085	1.95
x1 = 0.0212	1.945
x1 = 0.0386	1.944
x1 = 0.0573	1.944
x1 = 0.0817	1.943
x1 = 0.0917	1.942
x1 = 0.1295	1.944
x1 = 0.157	1.948
x1 = 0.2095	1.961
x1 = 0.2715	1.976
x1 = 0.323	1.994
x1 = 0.3675	2.01
x1 = 0.4185	2.031
x1 = 0.4527	2.046
x1 = 0.5174	2.072
x1 = 0.5743	2.103
x1 = 0.6243	2.125
x1 = 0.6804	2.151
x1 = 0.7324	2.186
x1 = 0.7821	2.219
x1 = 0.853	2.257
x1 = 0.9063	2.294
x1 = 0.9599	2.326

CCC(=O)OC + ClC(Cl)C(Cl)Cl
viscosity [mPa·s], 101.3 kPa
Settings	308.15 K	318.15 K
x1 = 0.0501	1.352	1.214
x1 = 0.1021	1.296	1.149
x1 = 0.2031	1.186	1.032
x1 = 0.302	1.078	0.927
x1 = 0.3398	1.037	0.889
x1 = 0.5038	0.865	0.741
x1 = 0.6012	0.769	0.664
x1 = 0.6946	0.681	0.597
x1 = 0.7988	0.591	0.528
x1 = 0.9016	0.509	0.468
x1 = 0.9481	0.474	0.443
